Like-named read-outs stand apart in the source and are kept apart here. One block for each compound: values may come before it.
Experiments:
[1] = system: lysozyme; experiment: ESI-MS of lysozyme glycoforms after incubation with D-ribose; conditions: 37° C., 5 days; for Peak area as % of total area of all glycoforms, 14,569: lysozyme + 2D-ribose − 2H2O (14,569 Da); for Peak area as % of total area of all glycoforms, 14,551: lysozyme + 2D-ribose − 3H2O (14,551 Da); for Peak area as % of total area of all glycoforms, 14,533: lysozyme + 2D-ribose − 5H2O (14,533 Da); for Peak area as % of total area of all glycoforms, 14,515: lysozyme + 2D-ribose − 6H2O (14,515 Da); for Peak area as % of total area of all glycoforms, 14,419: lysozyme + D-ribose − 2H2O (14,419 Da); for Peak area as % of total area of all glycoforms, 14,401: lysozyme + D-ribose − 3H2O (14,401 Da); for Peak area as % of total area of all glycoforms, 14,437: lysozyme + D-ribose − H2O (14,437 Da); for Peak area as % of total area of all glycoforms, 14,496: lysozyme + D-ribose − H2O with one carboxymethylated Lys residue (14,496 Da); for Peak area as % of total area of all glycoforms, 14,364: lysozyme with one carboxymethylated Lys residue (14,364 Da); for Peak area as % of total area of all glycoforms, 14,305: unmodified lysozyme (14,305 Da);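 on all read-outs here: lysozyme incubated with D-ribose, with or without anti-glycation agents, then separated by reversed-phase HPLC and analysed by electrospray mass spectrometry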
[2] = system: bovine serum albumin (BSA); experiment: Maillard fluorescence-based assay of AGEs formation, IC50 determination (BSA + D-ribose); conditions: for maximum percentage of the inhibition: Maillard fluorescence, listed if significantly lower than 100%; for IC50: inhibition of Maillard fluorescence development, 0.075 mM BSA, 50 mM D-ribose, 37° C., 5 days
Protocol: (§1) During the glycation reaction between proteins and reducing sugars, a specific fluorescence with excitation and emission wavelength of 370 nm and 440 nm, respectively, is observed. […] The assay was based on the progressive development of the characteristic Maillard fluorescence (370 nm Ex and 440 nm Em) during the progress of the glycation reaction.
(§2) The final assay volume was 200 μl and each assay well contained 0.075 mM BSA, and 50 mM D-ribose. Compounds were assayed at 3 different concentration levels (0.003, 0.03, and 0.3 mg/mL) to determine the effect of concentration on inhibition. Samples were incubated for 5 days.
(§3) The Maillard fluorescence was directly measured from the reaction solution, except for the anti-glycants that quenched the Maillard fluorescence, which were analyzed by the earlier-described HPLC method.
(§4) Solutions were incubated in microtitre plates (96 wells) at 37° C. for 5 days in a closed system.
(§5) After one hour incubation at 37° C., fluorescence readings were taken.
(§6) The IC50 values of the compounds that quenched the fluorescence of the glycated BSA were analyzed by on-line monitoring of the fluorescence of the glycated BSA separated from the fluorescence quenching assay compound by RP-HPLC. The elution profile was monitored by UV-diode array and by fluorescence (λex=370 nm, λem=440 nm). […] The incubation conditions were the same as above.

[3] = system: bovine serum albumin (BSA); experiment: Fluorescamine assay of free primary amino groups of BSA incubated with D-ribose; type: biochemical; conditions: free primary amino group on BSA after 5 days at 37° C.; agent at 16.8 times IC50; 64% without agent
Protocol: Fluorescamine assay (Yeboah F. et al., J. Agric. Food Chem. 48, 2766-2774 (2000)) was performed on incubated mixtures of BSA and D-ribose, with or without the identified anti-glycation agents. The mixtures contained BSA (0.075 mM protein concentration or 4.53 mM of Lys residue concentration) and D-ribose (50 mM). […] The fluorescamine assay determines the number of free lysine residues of BSA. In this experiment, the final volume of the incubation mixtures was 10 mL and the incubation time was 5 days at 37° C. Prior to the fluorescamine assay, the proteins were isolated by reverse phase HPLC. The protein content was determined using the Bio-Rad protein determination reagent (Bradford method). The fluorescamine assay was done in triplicate.

[4] = system: bovine serum albumin (BSA)
Protocol: as §1, §2, §3, §4, §5, §6

maximum percentage of the inhibition [2]: 50%)
IC50 [2]: 46 µM
Compound: NC(=O)N/N=C/c1ccc([N+](=O)[O-])o1 [Nitrofurazone]
Peak area as % of total area of all glycoforms, 14,569 [1]: 4.2%
Peak area as % of total area of all glycoforms, 14,551 [1]: 2.8%
Peak area as % of total area of all glycoforms, 14,533 [1]: 2.4%
Peak area as % of total area of all glycoforms, 14,515 [1]: 1.1%
Peak area as % of total area of all glycoforms, 14,419 [1]: 5.8%
Peak area as % of total area of all glycoforms, 14,401 [1]: 0.0%
Peak area as % of total area of all glycoforms, 14,437 [1]: 21.4%
Peak area as % of total area of all glycoforms, 14,496 [1]: 0.0%
Peak area as % of total area of all glycoforms, 14,364 [1]: 1.6%
Peak area as % of total area of all glycoforms, 14,305 [1]: 60.8%

IC50 [4]: 570 µM
Compound: Cc1ncc([N+](=O)[O-])n1CC(O)CCl (stereo not drawn) [Ornidazole]
Peak area as % of total area of all glycoforms, 14,569 [1]: 4.8%
Peak area as % of total area of all glycoforms, 14,551 [1]: 3.4%
Peak area as % of total area of all glycoforms, 14,533 [1]: 2.0%
Peak area as % of total area of all glycoforms, 14,515 [1]: 0.9%
Peak area as % of total area of all glycoforms, 14,419 [1]: 6.7%
Peak area as % of total area of all glycoforms, 14,401 [1]: 0.0%
Peak area as % of total area of all glycoforms, 14,437 [1]: 23.4%
Peak area as % of total area of all glycoforms, 14,496 [1]: 0.0%
Peak area as % of total area of all glycoforms, 14,364 [1]: 3.2%
Peak area as % of total area of all glycoforms, 14,305 [1]: 54.2%
Unreacted amino group [3]: 60%

IC50 [4]: 41 µM
maximum percentage of the inhibition [4]: 30%)
Compound: O=C1OC(CN2CCOCC2)CN1/N=C/c1ccc([N+](=O)[O-])o1 (stereo not drawn) [Furaltadone]
Peak area as % of total area of all glycoforms, 14,569 [1]: 4.5%
Peak area as % of total area of all glycoforms, 14,551 [1]: 2.7%
Peak area as % of total area of all glycoforms, 14,533 [1]: 1.1%
Peak area as % of total area of all glycoforms, 14,515 [1]: 0.0%
Peak area as % of total area of all glycoforms, 14,419 [1]: 6.3%
Peak area as % of total area of all glycoforms, 14,401 [1]: 0.0%
Peak area as % of total area of all glycoforms, 14,437 [1]: 23.9%
Peak area as % of total area of all glycoforms, 14,496 [1]: 0.0%
Peak area as % of total area of all glycoforms, 14,364 [1]: 0.9%
Peak area as % of total area of all glycoforms, 14,305 [1]: 60.6%
Unreacted amino group [3]: 60%

IC50 [2]: 810 µM
Compound: Nc1ncc([N+](=O)[O-])cn1 [2-Amino-5-nitropyrimidine]
Peak area as % of total area of all glycoforms, 14,569 [1]: 4.7%
Peak area as % of total area of all glycoforms, 14,551 [1]: 3.8%
Peak area as % of total area of all glycoforms, 14,533 [1]: 2.0%
Peak area as % of total area of all glycoforms, 14,515 [1]: 0.9%
Peak area as % of total area of all glycoforms, 14,419 [1]: 7.7%
Peak area as % of total area of all glycoforms, 14,401 [1]: 0.0%
Peak area as % of total area of all glycoforms, 14,437 [1]: 23.0%
Peak area as % of total area of all glycoforms, 14,496 [1]: 0.0%
Peak area as % of total area of all glycoforms, 14,364 [1]: 3.6%
Peak area as % of total area of all glycoforms, 14,305 [1]: 52.9%

IC50 [4]: 140 µM
Compound: C[C@@](Cc1ccc(O)c(O)c1)(NN)C(=O)O [S(−)-Carbidopa]
Peak area as % of total area of all glycoforms, 14,569 [1]: 0.0%
Peak area as % of total area of all glycoforms, 14,551 [1]: 2.4%
Peak area as % of total area of all glycoforms, 14,533 [1]: 0.8%
Peak area as % of total area of all glycoforms, 14,515 [1]: 0.6%
Peak area as % of total area of all glycoforms, 14,419 [1]: 3.2%
Peak area as % of total area of all glycoforms, 14,401 [1]: 2.0%
Peak area as % of total area of all glycoforms, 14,437 [1]: 18.4%
Peak area as % of total area of all glycoforms, 14,496 [1]: 0.9%
Peak area as % of total area of all glycoforms, 14,364 [1]: 3.7%
Peak area as % of total area of all glycoforms, 14,305 [1]: 67.9%
Unreacted amino group [3]: 89%

IC50 [4]: 190 µM
Compound: O=C1C=C(O)C(=O)c2ccccc21 [Lawsone]
Peak area as % of total area of all glycoforms, 14,569 [1]: 0.0%
Peak area as % of total area of all glycoforms, 14,551 [1]: 0.0%
Peak area as % of total area of all glycoforms, 14,533 [1]: 0.9%
Peak area as % of total area of all glycoforms, 14,515 [1]: 0.8%
Peak area as % of total area of all glycoforms, 14,419 [1]: 4.9%
Peak area as % of total area of all glycoforms, 14,401 [1]: 0.0%
Peak area as % of total area of all glycoforms, 14,437 [1]: 9.5%
Peak area as % of total area of all glycoforms, 14,496 [1]: 0.0%
Peak area as % of total area of all glycoforms, 14,364 [1]: 7.5%
Peak area as % of total area of all glycoforms, 14,305 [1]: 74.3%
Unreacted amino group [3]: 44%

Compound: Cc1cc(-c2ccc(/N=N/c3ccc4c(S(=O)(=O)O)cc(S(=O)(=O)O)c(N)c4c3O)c(C)c2)ccc1/N=N/c1ccc2c(S(=O)(=O)O)cc(S(=O)(=O)O)c(N)c2c1O [Evans blue]
IC50 [2]: 3700 µM

IC50 [2]: > 4000 µM
Compound: CCCCCCCCCCCCCCCC(=O)OC[C@@H](NC(=O)C(Cl)Cl)[C@H](O)c1ccc([N+](=O)[O-])cc1 [Chloramphenicol palmitate]

Compound: NCCc1cc(O)c(O)cc1O [6-Hydroxydopamine]
maximum percentage of the inhibition [2]: 65%)
IC50 [2]: 95 µM

IC50 [2]: 2600 µM
Compound: O=c1cc(-c2ccc(O)c(O)c2)oc2ccccc12 [3′.4′-Dihydroxyflavone]

IC50 [2]: > 4000 µM
Compound: O=c1c2ccccc2[se]n1-c1ccccc1 [Ebselen]

IC50 [2]: > 4000 µM
Compound: O=c1cc(-c2ccc(O)c(O)c2)oc2ccc(O)cc12 [6,3′,4′-Trihydroxyflavone]
Peak area as % of total area of all glycoforms, 14,569 [1]: 4.0%
Peak area as % of total area of all glycoforms, 14,551 [1]: 4.0%
Peak area as % of total area of all glycoforms, 14,533 [1]: 1.6%
Peak area as % of total area of all glycoforms, 14,515 [1]: 0.6%
Peak area as % of total area of all glycoforms, 14,419 [1]: 8.8%
Peak area as % of total area of all glycoforms, 14,401 [1]: 0.3%
Peak area as % of total area of all glycoforms, 14,437 [1]: 21.5%
Peak area as % of total area of all glycoforms, 14,496 [1]: 0.0%
Peak area as % of total area of all glycoforms, 14,364 [1]: 2.0%
Peak area as % of total area of all glycoforms, 14,305 [1]: 56.4%

IC50 [2]: > 4000 µM
Compound: CCOC(=O)[C@@H](N)CS [L-Cysteine ethyl ester]

Compound: Nc1ccc(C(=O)O)c(O)c1 [4-Amino-salicylic acid]
IC50 [2]: > 4000 µM

Compound: O=[N+]([O-])c1ncc[nH]1 [2-Nitroimidazole]
IC50 [2]: > 4000 µM

IC50 [2]: 82 µM
Compound: CC(=O)Nc1ncc([N+](=O)[O-])s1 [Aminitrozole]

Compound: N[C@@H](Cc1cc(I)c(O)c(I)c1)C(=O)O [3,5-Diiodo-L-tyrosine]
IC50 [2]: 1500 µM

IC50 [2]: 450 µM
Compound: O=c1c(-c2ccc(O)cc2)coc2cc(O)cc(O)c12 [Genistein]

Compound: Cc1cc2c(C(C)C)c(O)c(O)c(C=O)c2c(O)c1-c1c(C)cc2c(C(C)C)c(O)c(O)c(C=O)c2c1O [Gossypol]
IC50 [2]: 110 µM

Compound: O=[N+]([O-])c1cc(I)c(O)c(I)c1 [2,6-Diiodo-4-nitrophenol]
IC50 [2]: 1300 µM

IC50 [2]: 1800 µM
Compound: O=c1c(O)c(-c2ccc(O)c(O)c2)oc2ccccc12 [3,3′,4′-Trihydroxyflavone]

IC50 [2]: 100 µM
Compound: O=C1c2c(O)cc(O)cc2O[C@H](c2ccc(O)c(O)c2)[C@H]1O [Taxifolin]

Compound: Pyrithioxin
IC50 [2]: > 4000 µM

Compound: O=[N+]([O-])c1cc([As](=O)(O)O)ccc1O [Roxarsone]
Peak area as % of total area of all glycoforms, 14,569 [1]: 5.1%
Peak area as % of total area of all glycoforms, 14,551 [1]: 1.3%
Peak area as % of total area of all glycoforms, 14,533 [1]: 1.2%
Peak area as % of total area of all glycoforms, 14,515 [1]: 0.0%
Peak area as % of total area of all glycoforms, 14,419 [1]: 3.1%
Peak area as % of total area of all glycoforms, 14,401 [1]: 0.0%
Peak area as % of total area of all glycoforms, 14,437 [1]: 27.0%
Peak area as % of total area of all glycoforms, 14,496 [1]: 0.0%
Peak area as % of total area of all glycoforms, 14,364 [1]: 0.0%
Peak area as % of total area of all glycoforms, 14,305 [1]: 62.4%
IC50 [2]: 230 µM

Compound: C=CCN1CC[C@]23c4c5ccc(O)c4O[C@H]2/C(=N/N=C2\CC[C@@]4(O)[C@H]6Cc7ccc(O)c8c7[C@@]4(CCN6CC=C)[C@H]2O8)CC[C@@]3(O)[C@H]1C5 [Naloxonazine]
IC50 [2]: 1700 µM

Compound: NC(=O)c1cc([N+](=O)[O-])cc([N+](=O)[O-])c1 [3,5-Dinitrobenzamide]
IC50 [2]: 780 µM

Compound: O=c1c(O)c(-c2ccc(O)c(O)c2)oc2cc(O)cc(O)c12 [Quercetin]
IC50 [2]: 130 µM

IC50 [2]: 78 µM
Compound: COC(CNC(C)C)c1ccc(O)c(O)c1 (stereo not drawn) [3,4-Dihydroxy-1-[α-isopropylamino-β-methoxy)ethyl]benzene]

IC50 [2]: 100 µM
Compound: O=C1CN(/N=C/c2ccc(-c3ccc([N+](=O)[O-])cc3)o2)C(O)=N1 [Dantrolene]

Compound: Cc1c(C)c2c(c(C)c1O)CCC(C)(C(=O)O)O2 (stereo not drawn) [Trolox C]
IC50 [2]: 470 µM

IC50 [2]: 1800 µM
Compound: CC(CCc1ccccc1)NC(C)C(O)c1ccc(O)cc1 (stereo not drawn) [Nylidrin]

IC50 [2]: 1300 µM
Compound: O=C1CCN(c2ccccc2)N1 [Phenidone]

IC50 [2]: 510 µM
Compound: COc1ccc(-c2cc(=O)c3c(O)cc(O)cc3o2)cc1 [Acacetin]

IC50 [2]: 940 µM
Compound: O=c1cc(-c2cccc(O)c2)oc2cc(O)c(O)cc12 [6,7,3′-Trihydroxyflavone]

IC50 [2]: 440 µM
Compound: Oc1ccc(Cl)c2cccnc12 [Cloxiquine]

IC50 [2]: 950 µM
Compound: Cn1c([N+](=O)[O-])cnc1COC(N)=O [Ronidazole]
